How the values were obtained:
[1] = biological target: Dual specificity protein kinase CLK3 (Homo sapiens, UniProt P49761)
[2] = biological target: Tyrosine-protein kinase JAK1 (Homo sapiens, UniProt P23458); assay: Selectivity interaction (KinomeScan (DiscoverX)) EUB0001049a JAK1; conditions: at 1 µM
[3] = biological target: Phosphatidylinositol 4,5-bisphosphate 3-kinase catalytic subunit gamma isoform (Homo sapiens) (UniProt P48736); assay: Selectivity interaction (Ambit KINOMEscan and KiNATiv profiling in Jurkat cells) EUB0000090b PIK3CG; format: cell-based; conditions: at 1 µM
Chain of Phosphatidylinositol 4,5-bisphosphate 3-kinase catalytic subunit gamma isoform (Homo sapiens) (P48736 whole entry, looked up, canonical isoform): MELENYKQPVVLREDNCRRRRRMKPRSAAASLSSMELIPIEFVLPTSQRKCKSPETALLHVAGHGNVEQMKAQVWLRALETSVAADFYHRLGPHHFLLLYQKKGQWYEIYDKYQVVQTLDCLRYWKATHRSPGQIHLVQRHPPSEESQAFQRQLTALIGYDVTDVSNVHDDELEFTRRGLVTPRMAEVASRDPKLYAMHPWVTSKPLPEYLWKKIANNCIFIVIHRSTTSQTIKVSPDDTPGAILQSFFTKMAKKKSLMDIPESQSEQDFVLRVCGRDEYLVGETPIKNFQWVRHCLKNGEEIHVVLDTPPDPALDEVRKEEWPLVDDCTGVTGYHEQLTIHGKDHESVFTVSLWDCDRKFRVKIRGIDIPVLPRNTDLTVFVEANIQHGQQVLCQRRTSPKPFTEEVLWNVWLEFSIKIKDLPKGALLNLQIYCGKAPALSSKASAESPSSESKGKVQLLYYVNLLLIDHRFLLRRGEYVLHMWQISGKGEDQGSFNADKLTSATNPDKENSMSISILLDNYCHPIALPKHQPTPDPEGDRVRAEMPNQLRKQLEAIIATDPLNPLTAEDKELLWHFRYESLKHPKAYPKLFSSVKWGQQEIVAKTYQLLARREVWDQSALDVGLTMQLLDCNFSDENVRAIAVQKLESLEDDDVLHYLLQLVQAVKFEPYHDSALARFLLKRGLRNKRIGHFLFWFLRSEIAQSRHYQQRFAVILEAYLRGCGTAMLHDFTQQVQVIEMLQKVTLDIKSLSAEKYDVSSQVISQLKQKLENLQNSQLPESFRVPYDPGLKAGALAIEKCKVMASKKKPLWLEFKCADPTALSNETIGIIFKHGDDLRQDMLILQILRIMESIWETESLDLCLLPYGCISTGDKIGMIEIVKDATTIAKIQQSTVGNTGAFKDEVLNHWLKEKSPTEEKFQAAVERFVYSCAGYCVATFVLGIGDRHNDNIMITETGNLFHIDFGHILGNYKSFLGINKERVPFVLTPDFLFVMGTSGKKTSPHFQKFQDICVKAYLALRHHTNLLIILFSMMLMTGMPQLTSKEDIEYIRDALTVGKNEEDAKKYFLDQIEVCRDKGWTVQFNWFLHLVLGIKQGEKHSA

[4] = biological target: T1, Activin receptor type-1 (Homo sapiens) (UniProt Q04771); assay: Selectivity interaction (Kinase panel (Invitrogen)) EUB0000639a ACVR1; conditions: at 200 nM
T1 sequence (whole entry): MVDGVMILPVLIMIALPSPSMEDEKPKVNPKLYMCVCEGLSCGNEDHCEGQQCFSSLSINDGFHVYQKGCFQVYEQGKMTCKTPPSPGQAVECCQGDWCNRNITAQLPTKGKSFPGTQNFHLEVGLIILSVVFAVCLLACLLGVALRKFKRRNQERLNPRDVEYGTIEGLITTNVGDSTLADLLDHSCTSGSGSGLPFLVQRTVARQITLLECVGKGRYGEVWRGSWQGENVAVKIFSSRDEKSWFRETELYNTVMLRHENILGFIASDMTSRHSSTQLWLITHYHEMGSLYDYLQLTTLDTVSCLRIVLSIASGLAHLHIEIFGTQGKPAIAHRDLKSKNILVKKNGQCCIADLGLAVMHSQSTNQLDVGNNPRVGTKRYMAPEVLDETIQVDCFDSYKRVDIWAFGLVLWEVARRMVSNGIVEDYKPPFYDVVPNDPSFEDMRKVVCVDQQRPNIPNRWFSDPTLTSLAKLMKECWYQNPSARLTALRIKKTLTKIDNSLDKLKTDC

[5] = biological target: T2, Rhodopsin kinase GRK1 (Homo sapiens) (UniProt Q15835); assay: Selectivity interaction (LanthaScreen Eu Kinase Binding Assay) EUB0001632a GRK1; conditions: at 10 µM
T2 sequence (whole entry): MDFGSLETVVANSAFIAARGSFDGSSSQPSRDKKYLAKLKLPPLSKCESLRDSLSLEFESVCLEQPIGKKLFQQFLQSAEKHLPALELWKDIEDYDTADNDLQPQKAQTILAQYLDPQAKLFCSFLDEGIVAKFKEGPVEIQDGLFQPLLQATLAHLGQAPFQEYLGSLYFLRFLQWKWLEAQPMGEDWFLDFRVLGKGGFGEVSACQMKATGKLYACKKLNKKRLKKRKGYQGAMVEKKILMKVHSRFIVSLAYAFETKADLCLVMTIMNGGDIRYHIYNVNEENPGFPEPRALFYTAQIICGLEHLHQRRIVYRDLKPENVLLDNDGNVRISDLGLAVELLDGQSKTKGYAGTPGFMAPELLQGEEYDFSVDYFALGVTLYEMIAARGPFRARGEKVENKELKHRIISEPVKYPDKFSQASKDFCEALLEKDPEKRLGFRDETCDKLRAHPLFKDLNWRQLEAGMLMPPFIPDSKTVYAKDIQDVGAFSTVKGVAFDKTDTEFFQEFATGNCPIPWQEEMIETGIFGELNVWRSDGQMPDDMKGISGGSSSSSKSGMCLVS

[6] = biological target: Mitogen-activated protein kinase kinase kinase kinase 5 (Homo sapiens) (UniProt Q9Y4K4); assay: Selectivity interaction (KinomeScan (DiscoverX)) EUB0000695a MAP4K5; conditions: at 100 nM
Chain of Mitogen-activated protein kinase kinase kinase kinase 5 (Homo sapiens) (Q9Y4K4 whole entry, looked up): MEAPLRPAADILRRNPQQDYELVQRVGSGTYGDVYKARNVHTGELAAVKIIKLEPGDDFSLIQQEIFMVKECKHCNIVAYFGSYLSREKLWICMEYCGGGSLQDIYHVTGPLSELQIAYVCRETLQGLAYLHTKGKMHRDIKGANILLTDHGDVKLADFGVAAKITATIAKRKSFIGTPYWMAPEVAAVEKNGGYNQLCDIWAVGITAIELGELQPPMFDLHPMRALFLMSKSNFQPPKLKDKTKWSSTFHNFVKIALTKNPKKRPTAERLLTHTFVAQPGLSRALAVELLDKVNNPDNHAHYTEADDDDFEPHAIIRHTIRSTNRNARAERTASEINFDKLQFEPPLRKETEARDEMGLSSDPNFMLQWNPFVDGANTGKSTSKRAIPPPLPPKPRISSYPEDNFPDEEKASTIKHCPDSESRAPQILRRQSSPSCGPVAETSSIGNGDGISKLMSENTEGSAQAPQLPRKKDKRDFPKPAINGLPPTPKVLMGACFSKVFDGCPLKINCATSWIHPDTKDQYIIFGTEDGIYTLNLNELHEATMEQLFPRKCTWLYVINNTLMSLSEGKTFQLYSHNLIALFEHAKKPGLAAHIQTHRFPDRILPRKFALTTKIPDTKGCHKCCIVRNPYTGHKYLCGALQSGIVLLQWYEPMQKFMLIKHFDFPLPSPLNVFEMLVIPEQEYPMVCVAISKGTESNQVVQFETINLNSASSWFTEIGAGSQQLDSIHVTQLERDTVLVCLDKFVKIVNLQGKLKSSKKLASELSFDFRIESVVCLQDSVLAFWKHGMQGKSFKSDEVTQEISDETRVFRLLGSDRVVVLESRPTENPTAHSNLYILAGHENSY

[7] = biological target: Mitogen-activated protein kinase kinase kinase 1 (Homo sapiens, UniProt Q13233); assay: Selectivity interaction (KinomeScan (DiscoverX)) EUB0000695a MAP3K1; conditions: at 100 nM
Chain of Mitogen-activated protein kinase kinase kinase 1 (Q13233 whole entry): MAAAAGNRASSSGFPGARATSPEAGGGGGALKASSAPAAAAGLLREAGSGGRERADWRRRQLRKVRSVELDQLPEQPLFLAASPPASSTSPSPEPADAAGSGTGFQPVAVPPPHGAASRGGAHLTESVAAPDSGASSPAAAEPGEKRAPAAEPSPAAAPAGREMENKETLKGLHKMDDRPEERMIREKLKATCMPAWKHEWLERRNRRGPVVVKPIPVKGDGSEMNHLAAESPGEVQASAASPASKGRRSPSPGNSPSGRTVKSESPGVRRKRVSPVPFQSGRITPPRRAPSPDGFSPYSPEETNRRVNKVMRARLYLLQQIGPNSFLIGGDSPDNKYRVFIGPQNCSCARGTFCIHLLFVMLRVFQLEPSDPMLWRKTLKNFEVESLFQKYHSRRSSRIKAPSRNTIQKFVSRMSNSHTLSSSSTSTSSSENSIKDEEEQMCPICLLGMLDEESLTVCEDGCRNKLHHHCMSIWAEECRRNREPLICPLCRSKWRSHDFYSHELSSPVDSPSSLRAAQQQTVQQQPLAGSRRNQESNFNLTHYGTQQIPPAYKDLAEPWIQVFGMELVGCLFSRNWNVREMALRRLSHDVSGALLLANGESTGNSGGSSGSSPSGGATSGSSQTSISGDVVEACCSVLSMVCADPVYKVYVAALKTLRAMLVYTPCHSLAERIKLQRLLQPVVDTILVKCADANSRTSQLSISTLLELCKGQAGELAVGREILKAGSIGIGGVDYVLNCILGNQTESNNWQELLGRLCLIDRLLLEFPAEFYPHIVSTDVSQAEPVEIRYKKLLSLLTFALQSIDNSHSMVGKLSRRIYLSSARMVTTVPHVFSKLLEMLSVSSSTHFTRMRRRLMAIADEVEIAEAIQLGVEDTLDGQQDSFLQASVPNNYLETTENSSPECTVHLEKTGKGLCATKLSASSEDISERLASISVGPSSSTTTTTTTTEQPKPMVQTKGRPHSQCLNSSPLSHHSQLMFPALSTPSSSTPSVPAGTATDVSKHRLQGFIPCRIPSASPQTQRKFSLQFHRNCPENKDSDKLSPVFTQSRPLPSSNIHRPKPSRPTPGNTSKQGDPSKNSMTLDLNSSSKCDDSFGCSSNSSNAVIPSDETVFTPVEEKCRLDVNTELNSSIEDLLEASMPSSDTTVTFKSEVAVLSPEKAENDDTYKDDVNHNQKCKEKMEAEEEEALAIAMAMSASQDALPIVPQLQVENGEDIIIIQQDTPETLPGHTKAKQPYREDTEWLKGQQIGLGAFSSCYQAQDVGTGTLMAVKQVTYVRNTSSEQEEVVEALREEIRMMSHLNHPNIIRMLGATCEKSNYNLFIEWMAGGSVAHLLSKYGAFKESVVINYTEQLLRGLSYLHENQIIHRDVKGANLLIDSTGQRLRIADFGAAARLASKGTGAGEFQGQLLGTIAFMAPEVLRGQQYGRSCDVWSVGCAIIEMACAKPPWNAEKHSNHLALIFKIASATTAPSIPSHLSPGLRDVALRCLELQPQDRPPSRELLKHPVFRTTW

[8] = biological target: Mitogen-activated protein kinase 8 (Homo sapiens, UniProt P45983); conditions: at 10 µM
Chain of Mitogen-activated protein kinase 8 (P45983 whole entry): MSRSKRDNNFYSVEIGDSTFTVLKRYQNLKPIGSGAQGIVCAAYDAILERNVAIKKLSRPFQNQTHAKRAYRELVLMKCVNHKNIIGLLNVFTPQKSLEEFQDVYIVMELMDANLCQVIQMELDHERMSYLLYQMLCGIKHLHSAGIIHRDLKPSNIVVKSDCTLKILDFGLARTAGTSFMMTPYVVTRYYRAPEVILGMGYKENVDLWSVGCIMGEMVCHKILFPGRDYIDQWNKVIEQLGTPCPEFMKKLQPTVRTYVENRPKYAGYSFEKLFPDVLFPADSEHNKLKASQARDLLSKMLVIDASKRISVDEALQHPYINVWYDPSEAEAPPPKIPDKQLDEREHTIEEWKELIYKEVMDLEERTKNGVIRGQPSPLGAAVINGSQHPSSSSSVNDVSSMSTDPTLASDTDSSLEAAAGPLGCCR

[9] = biological target: T3, Mitogen-activated protein kinase kinase kinase kinase 3 (Homo sapiens) (UniProt Q8IVH8); assay: Selectivity interaction (KinomeScan (DiscoverX)) EUB0000092b MAP4K3; conditions: at 10 µM
T3 sequence (whole entry): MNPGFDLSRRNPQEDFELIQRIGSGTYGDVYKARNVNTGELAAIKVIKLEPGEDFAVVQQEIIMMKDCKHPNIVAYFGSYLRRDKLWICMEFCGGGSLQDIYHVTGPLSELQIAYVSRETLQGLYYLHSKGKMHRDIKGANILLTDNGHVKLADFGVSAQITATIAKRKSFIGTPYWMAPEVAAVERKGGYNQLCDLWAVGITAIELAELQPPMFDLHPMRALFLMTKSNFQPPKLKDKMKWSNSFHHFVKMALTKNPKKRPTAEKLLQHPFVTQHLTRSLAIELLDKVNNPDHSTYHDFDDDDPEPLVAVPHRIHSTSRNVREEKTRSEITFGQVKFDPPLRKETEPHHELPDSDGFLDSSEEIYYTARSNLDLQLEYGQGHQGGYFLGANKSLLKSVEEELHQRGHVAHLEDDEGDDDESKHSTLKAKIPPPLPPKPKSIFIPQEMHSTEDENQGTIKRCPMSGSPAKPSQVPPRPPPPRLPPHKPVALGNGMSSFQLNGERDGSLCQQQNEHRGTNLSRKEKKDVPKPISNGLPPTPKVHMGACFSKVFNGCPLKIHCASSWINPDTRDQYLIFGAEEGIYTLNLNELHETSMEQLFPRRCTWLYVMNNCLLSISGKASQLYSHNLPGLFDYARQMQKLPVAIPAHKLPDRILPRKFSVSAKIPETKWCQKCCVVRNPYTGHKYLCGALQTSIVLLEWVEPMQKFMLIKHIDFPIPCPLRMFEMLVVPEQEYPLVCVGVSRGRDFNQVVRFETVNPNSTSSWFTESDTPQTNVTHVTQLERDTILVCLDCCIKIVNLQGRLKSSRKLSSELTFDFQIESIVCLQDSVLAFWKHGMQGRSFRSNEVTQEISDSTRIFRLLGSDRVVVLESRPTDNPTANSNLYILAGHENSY

[10] = biological target: Calcium/calmodulin-dependent protein kinase type II subunit gamma (Homo sapiens) (UniProt Q13555); assay: Selectivity interaction (KinomeScan (DiscoverX)) EUB0001619a CAMK2G; conditions: at 1 µM
Chain of Calcium/calmodulin-dependent protein kinase type II subunit gamma (Homo sapiens) (Q13555 whole entry): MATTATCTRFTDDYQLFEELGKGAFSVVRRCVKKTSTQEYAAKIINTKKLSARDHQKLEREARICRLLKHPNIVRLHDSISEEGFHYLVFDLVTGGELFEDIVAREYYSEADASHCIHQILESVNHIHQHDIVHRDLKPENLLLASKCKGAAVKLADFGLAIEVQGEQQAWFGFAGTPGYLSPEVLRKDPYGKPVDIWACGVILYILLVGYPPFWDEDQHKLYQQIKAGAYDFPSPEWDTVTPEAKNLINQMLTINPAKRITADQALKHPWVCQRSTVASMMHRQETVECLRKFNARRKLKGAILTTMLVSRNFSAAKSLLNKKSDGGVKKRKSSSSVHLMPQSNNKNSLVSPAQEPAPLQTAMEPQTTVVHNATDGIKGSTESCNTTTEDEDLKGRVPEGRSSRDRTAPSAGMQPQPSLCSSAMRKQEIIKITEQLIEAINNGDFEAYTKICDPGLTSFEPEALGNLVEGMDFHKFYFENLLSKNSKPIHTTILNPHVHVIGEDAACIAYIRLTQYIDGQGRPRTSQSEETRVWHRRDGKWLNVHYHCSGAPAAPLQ

Chain of Dual specificity protein kinase CLK3 (P49761 whole entry, looked up): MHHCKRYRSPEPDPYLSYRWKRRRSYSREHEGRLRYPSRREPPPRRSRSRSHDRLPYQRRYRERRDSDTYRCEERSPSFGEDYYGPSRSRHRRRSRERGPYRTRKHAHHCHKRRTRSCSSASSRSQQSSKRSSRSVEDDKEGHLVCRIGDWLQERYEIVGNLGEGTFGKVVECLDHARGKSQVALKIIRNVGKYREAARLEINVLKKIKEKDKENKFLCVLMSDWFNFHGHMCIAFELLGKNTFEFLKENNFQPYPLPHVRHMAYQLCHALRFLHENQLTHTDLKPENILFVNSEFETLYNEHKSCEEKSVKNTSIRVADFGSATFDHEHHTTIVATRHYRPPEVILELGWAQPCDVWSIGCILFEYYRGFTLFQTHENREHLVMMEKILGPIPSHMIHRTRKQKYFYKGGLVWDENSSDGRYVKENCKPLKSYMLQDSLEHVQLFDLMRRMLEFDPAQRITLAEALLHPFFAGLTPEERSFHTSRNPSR

Cc1cnc(Nc2ccc(F)cc2Cl)nc1-c1c[nH]c(C(=O)N[C@H](CO)c2cccc(Cl)c2)c1
% of inhibition [1]: 9%

COc1cc(Nc2nc(C)cc(-c3cnn4nc(OC)ccc34)n2)cc(C(F)(F)F)c1
% of control [2]: 100%

CN(C)C/C=C/C(=O)Nc1ccc(C(=O)N2CCCC(Nc3ncc(Cl)c(-c4c[nH]c5ccccc45)n3)C2)cc1 (stereo not given)
% of control [3]: 92%

CC[C@@H]1[C@H](F)C(=O)N[C@@H]1COc1nccc2cc(C(N)=O)c(OC)cc12 [ZIMLOVISERTIB]
% of inhibition [4]: 25.7%

Cn1cc(-n2cnc3c(NCc4nc5cc(Cl)c(Cl)cc5[nH]4)nc(N4CCOCC4)nc32)cn1
% of inhibition [5]: -16.5%

Cc1cc(F)c(C(=O)Nc2cccc(-c3nncn3C(C)C)n2)cc1-n1cnc(C2CC2)c1
% of control [6]: 100% | % of control [7]: 100%

CCN(CC)CCCCNc1ncc2cc(-c3cc(OC)cc(OC)c3)c(NC(=O)NC(C)(C)C)nc2n1
% of control [8]: 100%

CCC(=O)N1CCN(c2ccc(-n3c(=O)ccc4cnc5ccc(-c6cnc7ccccc7c6)cc5c43)cc2C(F)(F)F)CC1
% of control [9]: 1.9%

N#Cc1cccc(-c2c[nH]c3ncnc(N4CCOCC4)c23)c1
% of control [10]: 100%
